Experimental data: PubChem BioAssay (NCI)
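Five compound concentrations were applied to cells in 96-well plates for 48 hours; endpoints were derived by simple linear interpolation of the resulting dose-response curve. TGI marks complete inhibition of growth.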

Assays:
Experiment in all cases: NCI tumour cell line growth inhibition, 48 h
[1] = tested on: HCC-2998 colon
[2] = tested on: HOP-62 NSCLC
[3] = tested on: HOP-92 NSCLC
[4] = tested on: NCI-H23 lung
[5] = tested on: SF-268 CNS
[6] = tested on: SF-295 CNS
[7] = tested on: SK-MEL-5 melanoma
[8] = tested on: SW-620 colon
[9] = tested on: UACC-257 melanoma
[10] = tested on: CAKI-1 renal
[11] = tested on: LOX IMVI melanoma
[12] = tested on: UO-31 renal

| SMILES | TGI [1] | TGI [2] | TGI [3] | TGI [4] | TGI [5] | TGI [6] | TGI [7] | TGI [8] | TGI [9] | TGI [10] | TGI [11] | TGI [12] |
| --- | --- | --- | --- | --- | --- | --- | --- | --- | --- | --- | --- | --- |
| COc1ccc2c(c1OC)C(=O)N/C2=C\c1c(CCN(C)C)cc2c(c1OC)OCO2 | > 100 µM | > 100 µM | > 100 µM | > 100 µM | > 100 µM | > 100 µM | > 100 µM | > 100 µM | > 100 µM |  |  |  |
| O=C(O)c1ccc([C@@H]2C(=O)N(O)[C@@H]3C=CC[C@@H]32)cc1 | > 100 µM | > 100 µM |  | > 100 µM | > 100 µM | > 100 µM | > 100 µM | > 100 µM | > 100 µM | > 100 µM | > 100 µM | > 100 µM |
| COc1cc(C2OC[C@@H]3C(=O)OC[C@H]23)cc(O)c1OC (stereo partly specified) | > 100 µM |  | > 100 µM | > 100 µM | > 100 µM | > 100 µM | > 100 µM | > 100 µM | > 100 µM | > 100 µM | > 100 µM | > 100 µM |
| O=C(NCCCN(CCCCN(CCCNC(=O)c1cc(S(=O)(=O)O)cc(O)c1O)C(=O)c1cc(S(=O)(=O)O)cc(O)c1O)C(=O)c1cc(S(=O)(=O)O)cc(O)c1O)c1cc(S(=O)(=O)O)cc(O)c1O | > 100 µM |  | > 100 µM | > 100 µM | > 100 µM |  | > 100 µM | > 100 µM | > 100 µM | > 100 µM | > 100 µM | > 100 µM |
| CC1=N[C@@](C)(C2CC3C=CC2C3=O)COC1=O (stereo partly specified) | > 100 µM | > 100 µM | > 100 µM | > 100 µM | > 100 µM | > 100 µM | > 100 µM | > 100 µM | > 100 µM | > 100 µM |  | > 100 µM |
| CC1=CC(=O)N(n2c(Cc3ccc(Cl)cc3)n[nH]c2=O)C1=O | > 100 µM |  | 67.7 µM | > 100 µM | > 100 µM | > 100 µM | > 100 µM | > 100 µM | > 100 µM | > 100 µM | > 100 µM | > 100 µM |
| C=CCCCC1(C)CCNC1=S (stereo unspecified) | > 100 µM | > 100 µM | > 100 µM | > 100 µM | > 100 µM | > 100 µM | > 100 µM | > 100 µM | > 100 µM | > 100 µM |  | > 100 µM |
| Cc1cc(C)nc(NS(=O)(=O)c2ccc(NC(=O)NC(F)(F)F)cc2)n1 | > 100 µM |  |  | > 100 µM | > 100 µM |  | > 100 µM | > 100 µM | > 100 µM | 72.8 µM | > 100 µM | > 100 µM |
| COc1ccccc1NC(=O)CC(=O)N1N=C(c2ccccc2)C(N=Nc2ccc(Cl)cc2)C1=O (stereo unspecified) | > 100 µM | 48.6 µM |  | > 100 µM | > 100 µM | 70.3 µM | 42 µM | > 100 µM | > 100 µM | > 100 µM | > 100 µM | 52.4 µM |
| NC(N)=NS(=O)(=O)c1ccc(NC(=O)c2cccc3c(N)c4ccccc4nc23)cc1 | > 100 µM | > 100 µM |  | > 100 µM | > 100 µM | > 100 µM | > 100 µM | > 100 µM | > 100 µM | > 100 µM | > 100 µM | > 100 µM |
| Cc1cc(S(=O)(=O)NC(=NCCc2ccccc2)NN)c(S)cc1Cl | 50.6 µM |  |  |  | 79.7 µM |  | 37.9 µM | 82.5 µM | > 100 µM | > 100 µM | > 100 µM | 56.9 µM |
| Cc1cn(C2CCN(CC3COC(C)(C)O3)O2)c(=O)[nH]c1=O (stereo unspecified) |  | > 100 µM | > 100 µM | > 100 µM | > 100 µM | > 100 µM | > 100 µM | > 100 µM | > 100 µM | > 100 µM | > 100 µM | > 100 µM |
| O=C(Cc1nc2ccc([N+](=O)[O-])cc2[nH]c1=O)C(=O)Nc1ccccc1[N+](=O)[O-] | > 100 µM |  | > 100 µM | > 100 µM | > 100 µM | > 100 µM | > 100 µM | > 100 µM | > 100 µM | > 100 µM | > 100 µM | > 100 µM |
| CC(=O)Nc1cc2nc3n(c2cc1C)CCC3OC(C)=O (stereo unspecified) | > 100 µM |  | > 100 µM | > 100 µM | > 100 µM | > 100 µM |  | > 100 µM | > 100 µM | > 100 µM | > 100 µM | > 100 µM |
| C#CCOCn1cc(C)c(=O)[nH]c1=O | > 100 µM | > 100 µM |  | > 100 µM | > 100 µM | > 100 µM | > 100 µM | > 100 µM | > 100 µM | > 100 µM | > 100 µM | > 100 µM |
